Assays:
phosphorylated tau = experiment: Phospho-tau immunoreactivity; type: in vivo, mouse
3×TgAD and non-Tg mice = experiment: Trace eyeblink conditioning, learning and memory; type: in vivo, mouse; conditions: for memory performance nine days after learning trial / learning performance: 3 months; for learning performance: 10 mg/kg s.c. once
Method: Under deep anesthesia by intraperitoneal (i.p.) injection with ketamine (100 mg/kg i.p.) and xylazine (25 mg/kg i.p.), a 4 pin head stage (DIGI-KEY) was cemented to the skull of 3 month old male mouse with dental acrylic. The connector has four Teflon-coated stainless steel wires and one bare stainless steel wire (0.003″ bare and 0.0055″ coated, A-M Systems, Inc.). The bare wire was attached via a gold pin (Time Electronics) to the head stage. Coated wires were implanted s.c. in the orbicularis oculi dorsal to the left upper eyelid to record the EMG and s.c. periorbitally to deliver the shock US (3). All animals were then placed on a warm isothermal pad after surgery to recovery for 30 min. After surgery, mice were individually housed, provided with ad libitum access to food and water, and maintained on a 12 hr light/dark cycle.
After one week of acclimation to the colony room, mice with no obvious adverse responses to surgery were randomly assigned to an experimental condition. Mice were injected subcutaneously (s.c.) with 10 mg/kg THP or vehicle followed one hour later with an IP injection of BrdU (100 mg/kg). Following injection of test compound, mice were returned to their home cage for 7 days prior to onset of behavioral testing.
During the first day of training, mice were placed within Plexiglas cylinders in a sound-attenuated chamber and were habituated to the test environment for one session consisting of 30 stimulus-free trials at 30-60 sec inter-trial intervals while spontaneous eye-blink activity was recorded using electromyographic (EMG) activity recorded from the obicularis oculi dorsal to the orbit during each trial. EMG activity was rectified, and integrated using custom designed computational Labview routines.
Following habituation to the test environment mice underwent a learning phase and were trained for five days. Mice were trained by pairing delivery of a tone (CS, 250 msec, 2 kHz, 85 dB) as the conditioned stimulus followed by a 250 msec period of no stimuli, followed by the periobital shock as the unconditioned stimulus (US, 100 msec). Mice received two blocks of 30 trials per day (30-60-sec inter-trial intervals, 3-4-h inter-block intervals). This trace eye-blink conditioning paradigm is subthreshold for inducing neurogenesis. The unpaired group received random tone at the same magnitude as the paired conditioning and shock with 15-30 sec as inter-trial intervals and a total of 60 trials for one session per day. Shock intensity was adjusted daily for each mouse to elicit a head-movement response. Following the learning phase, mice were returned to their home cage for eight days followed on the ninth day by a single session to assess memory of the conditioned response. The percentage of CR was computed as the ratio of the number of CRs to the total number of valid trials. Animals were perfused at the end of the memory trial day.
To determine if there was a functional consequence of THP-induced neurogenesis, the impact of THP on both the learning and memory of a behavioral task shown to be dependent upon the generation of new neurons in the dentate gyrus, delayed trace conditioning was assessed. 3×TgAD and non-Tg background mice were prepared for behavioral testing and received a single s.c. injection of THP (10 mg/kg once) or vehicle 7 days prior to start of the learning trial. After injection, mice were housed for 7 days before the training process started. The rationale for the 7 day interim between exposure to THP and the start of the behavioral experiment was to allow time for the proliferation, migration and integration of newly generated neurons into the dentate gyrus.
Following the 7 day interim period, the behavioral testing commenced with a 5 day (2×30 trials/day) training learning phase to assess rate and magnitude learning performance. After the learning trial, mice were returned to their home cage for another 9 day period and subsequently tested for memory of the learned association. […]

CNPase = CNPase expression (myelination marker); type: in vivo, mouse
Method: Further studies were conducted using a dosing regime of once a week for six months administered subcutaneously. Three and six months old 3×Tg-AD and age-matched non-Tg mice were chosen for the experiments, since AD pathology (Aβ) starts development at 3-month and abundant accumulation at 6-months. Allopregnanolone was subcutaneously (s.c.) administrated with 10 mg/kg once per week for 6 months. For neurogenesis and neurosurvival study, BrdU, IdU and CIdU were intraperitoneal (i.p.) injected at the first 5 days, mid 5 days and 5 days before sacrifice during 6-month treatment. After 6 months of allopregnanolone treatment, mice, at 9- and 12-month old, were sacrificed.
Immunofluorescent staining shown the immunoreactivity increased in CA1, entorhinal cortex, and primary somatosensory cortex.

hippocampal neurons = experiment: Total number of hippocampal neurons; type: cell-based, rat; conditions: primary hippocampal neurons
Description: Having determined that THP increases the expression of the cell proliferating markers, a determination was sought as to whether the increase in cell proliferation markers translated into an increase in neuronal number. […] As shown in FIGS. 6A-6C, THP increases neuron number as assessed in MuLV-GFP infected mouse neurons. The effect of THP on HT-22 cells proliferation was detected on MuLV infected cells.

[1] = system: human neural progenitor cells (hNPC); experiment: Proliferation and phenotype of human neural progenitor cells (hNPC); type: cell-based
Method: To determine the impact of THP on hNPC cell proliferation, a dose response (pM-nM) experiment was performed. Results of these analyses indicate:
To determine the impact of THP on the stability of hNPC phenotype, hNPCs were double labeled with BrdU, Tuj1 and MAP2, or GFAP.
To determine whether the same mechanisms of THP-induced proliferation in rodent derived NPCs could be generalized to humans, we determined the requirement of the GABAAR by antagonizing the GABAAR with bicuculline followed by assessment of THP-induced hNPC cell proliferation.

[2] = 3×Tg-AD mice, once a week for 6 months

With `CC(=O)[C@H]1CC[C@H]2[C@@H]3CC[C@H]4C[C@H](O)CC[C@]4(C)[C@H]3CC[C@]12C` [THP, 3α-hydroxy-5α-pregnan-20-one] the “immunoreactivity of phosphorylated tau” value (phosphorylated tau; 10 mg/kg once a week for six months) was “decreases the immunoreactivity of phosphorylated tau”, the “AT8 immunoreactivity, immunoblotting” value (phosphorylated tau; [2]) was “did not show a significantly reduction of AT8 immunoreactivity” and the AT8 immunostaining (phosphorylated tau; [2]) was “lower levels of immunoreactivity in THP-treated hippocampal CA1, cortex and amygdala”. The “memory performance nine days after learning trial” value (3×TgAD and non-Tg mice; 3×TgAD mice) was “significant increase in memory”, the learning performance (3×TgAD and non-Tg mice; 3×TgAD mice) was “significantly increased the learning performance” and the “learning level (conditioned response) at the end of training” value (3×TgAD and non-Tg mice; 3×TgAD mice, 6-months-old, 10 mg/kg) was 39.2±9.2%. The “memory test 9 days after acquisition phase” value (3×TgAD and non-Tg mice; 3×TgAD mice, 6 months) was “significantly increased the retention of the conditioned response rate”, the “final level of learning” value (3×TgAD and non-Tg mice; 3×TgAD mice, 9-months-old) was 23.6±4.0% and the “memory performance after 9 days vs vehicle” value (3×TgAD and non-Tg mice; 3×TgAD mice, 9-months-old) was “significantly better memory performance”. The “final level of learning” value (3×TgAD and non-Tg mice; 3×TgAD mice, 12-months-old) was 14.9±3.6%, the “memory deficit vs vehicle-treated non-Tg mice” value (3×TgAD and non-Tg mice; 3×TgAD mice, 12-months-old) was “not reversed” and the “learning rate and final level of learning” value (3×TgAD and non-Tg mice; 3×TgAD mice, 15-month-old) was “did not affect the learning rate nor the final levels of learning”. For the same compound, the “% CR” value (3×TgAD and non-Tg mice; 3×TgAD mice, memory phase) was 53.96%, the “memory performance nine days after learning trial” value (3×TgAD and non-Tg mice; non-Tg mice) was “did not significantly augment the memory performance” and the learning performance (3×TgAD and non-Tg mice; non-Tg mice) was “did not augment the learning performance”. For the same compound, the memory retention (3×TgAD and non-Tg mice; non-Tg mice, 6 months) was “no effect”, the “maximal conditioned response rate” value (3×TgAD and non-Tg mice; non-Tg mice, 6 months, 10 mg/kg) was 30.4±7.7% and the “final level of learning” value (3×TgAD and non-Tg mice; non-Tg mice, 9-months-old) was 20.6±4.1%. The memory test performance (3×TgAD and non-Tg mice; non-Tg mice, 9-months-old) was “no significant effect”, the “final level of learning” value (3×TgAD and non-Tg mice; non-Tg mice, 12-months-old) was 25.4±6% and the memory performance (3×TgAD and non-Tg mice; non-Tg mice, 12-months-old) was “modest improved memory performance which was not significantly better than vehicle-treated group”. For the same compound, the “maximum level of learning” value (3×TgAD and non-Tg mice; non-Tg mice, 15-months-old) was 29.6±5.5%, the “CNPase expression, Western blot” value (CNPase; 9-month nonTg mice and 3×TgAD mice) was “increased CNPase expression” and the “CNPase expression, Western blot” value (CNPase; 12-month 3×TgAD mice) was “trended towards an increase”. For the same compound, the “CNPase expression, Western blot” value (CNPase; 12-month non-Tg mice) was “no significant difference”, the “increase in neuron number” value (hippocampal neurons) was “approximately 30%” and the “efficacy as neurogenic factor compared with bFGF+heparin” value [1] was “exceeded that of bFGF+heparin”. The “proliferative efficacy compared with positive control bFGF” value ([1]; 250 nM THP) was “as efficacious a proliferative factor as the positive control, bFGF”, the “concentration at which proliferation was first evident” value ([1]; dose response) was 1 nM and the “concentration at which proliferative efficacy diminished” value ([1]; dose response) was 1000 nM. For the same compound, the “concentration of maximal proliferation” value ([1]; dose response, sustained at 250 and 500 nM) was 100 nM, the “increase in human neural progenitor cell proliferation” value ([1]; doses within an achievable therapeutic range) was 50% and the “number of BrdU positive hNPCs vs vehicle” value ([1]; double labeling) was “significantly increased”. The “proportion of Tuj1, MAP2 or GFAP cells vs vehicle” value ([1]; double labeling) was “not changing”, the “time at which hNPC proliferation reached maximum” value ([1]; time course) was 6 h and the “time at which hNPC proliferation was evident” value ([1]; time course) was 3 h.

From patent publication US11207331B2, “Agents, compositions and methods for enhancing neurological function” (University of Southern California, priority 2007, dated 2021)
